These results are taken from patent US10668033B2, “Modulators of the prostacyclin (PGI2) receptor useful for the treatment of disorders related thereto” (Arena Pharmaceuticals, Inc., priority 2008, dated 2020).

The Solubility is the dissolved amount per volume that the medium holds. A word on the Tmax: it is the time at which the peak concentration occurs. One may read the AUC(0-t) as exposure summed from dosing to a finite time, without extrapolation to infinity. Broadly, the Cmax is the peak of the concentration-time curve.

Structures are written as SMILES.

Series [1] can be described thus: Dynamic vapor sorption (DVS) hygroscopicity. It is filed as physicochemical. Particulars: at 90% relative humidity; listed as Form 1 of the sodium salt of Compound 22. As to the method:
Hygroscopicity was measured using a dynamic moisture-sorption analyzer, VTI Corporation, SGA-100. The sample was placed as-is in a tared sample holder on the VTI balance. A drying step was run at 40° C. and ˜1% RH for 60 to 120 min. The isotherm conditions are 25° C. with steps of 20% RH from 10% RH up to 90% RH and back to 10% RH. The weight was checked every 2 min. Percent weight change of <0.01% in 20 min or 2 h, whichever occurs first, is required before continuing to the next step.

A short description of series [2]: Excipient solubility study.
Method: The solubility of 2-(((1r,4r)-4-(((4-chlorophenyl)(phenyl)carbamoyloxy)methyl)cyclohexyl)methoxy)acetic acid (Compound 22) and sodium 2-(((1r,4r)-4-(((4-chlorophenyl)(phenyl)carbamoyloxy)methyl)cyclohexyl)methoxy)acetate (Compound 22 sodium salt) in various excipients was measured.
The nature of series [3]: Plasma profile in rats after 10 mg/kg oral dose of Compound 22 sodium salt. It is filed as in vivo. The conditions noted are these: rat, after a 10 mg/kg oral dose of Compound 22 (sodium salt, FIG. 25), male rats.
The nature of series [4]: Pharmacokinetics in rats after oral administration of Compound 99. Particulars: for half-life: read-out: terminal phase half-life (T1/2) (converted). Format: in vivo, Sprague-Dawley rat. Here is the method:
Blood samples were obtained from 0.100 to 21.0 h post-dose for plasma drug concentration measurements. […] Pharmacokinetic parameters were estimated using non-compartmental pharmacokinetic analysis.

Series [5] is described as follows: Excipient compatibility (stability) study. Format: physicochemical. Particulars: four weeks in a glass vial at 50° C. Here is the method: Compound 22 was tested for stability in three of the excipients.
For series [6], the system named is MCT-induced pulmonary arterial hypertension. The series is described as follows: Rat monocrotaline (MCT) model of pulmonary arterial hypertension. Format: in vivo. Particulars: 30 mg/kg oral gavage twice a day for 21 days; 60 mg/kg MCT s.c.; male Wistar rats. As to the method: Male Wistar rats (100-150 g at start of study) (Charles River Laboratories, Wilmington, Mass.) were housed two per cage and maintained in a humidity—(40-60%) and temperature—(68-72° F.) controlled facility on a 12 hr:12 hr light/dark cycle (lights on at 6:30 am) with free access to food (Harlan Teklad, Orange Calif., Rodent Diet 8604) and water. Rats were allowed one week of habituation to the animal facility before testing.
The rat monocrotaline (MCT) model is a standard and well-accepted model of pulmonary arterial hypertension. MCT induces acute pulmonary endothelial damage associated with pulmonary vascular inflammation. […]
Rats were randomly given a single subcutaneous injection of either 60 mg/kg MCT (Sigma, St. Louis, Mo.) or 0.9% saline (sham) and assigned to receive oral administration of 20% hydroxypropyl beta-cyclodextrin (vehicle) or test compound (30 mg/kg; FIGS. 7 and 8). […] Heart chamber weights were measured on Day 22. […] The ratio of right ventricular (RV) weight to left ventricle plus septum (LV+S) weight (this ratio is indicated as “RV/(LV+S)” in FIGS. 7 and 8) was calculated as an index of the hypertrophic response to the induced pulmonary arterial hypertension and, as such, as an index of a test compound's therapeutic efficacy for pulmonary arterial hypertension.

Series [7] has as its system Sprague-Dawley rat hepatocytes. The series is described as follows: Hepatocyte metabolism of Compound 22 sodium salt, rat. Format: in vitro ADME. The conditions noted are these: 100 μM, up to 240 min. As to the method:
(§1) All cryopreserved hepatocytes were thawed and diluted to a desired cell density (1×10^6 cells/mL) according to the supplier's (Xenotech) guidelines using hepatocytes isolation kit. Cell viability was determined by trypan blue exclusion using a hemacytometer. A typical incubation mixture contained human, cynomolgus monkey, beagle dog or Sprague-Dawley rat hepatocytes (200,000 cells/199 μL) in designated wells of a 48-well plate containing incubation medium (Phenol red-free Waymouth's medium). […] One incubation plate was prepared for each time point (i.e., 0, 60, 120, and 240 min) with samples being prepared in duplicate. Incubations were conducted at 37° C., 5% CO2 and 100% relative humidity in an incubator. At each time point, one incubation plate was removed form the incubator, and reaction was terminated by adding 400 μL of acetonitrile containing an internal standard. For the 0 min time point, the reactions were kept on ice before adding Compound 22 sodium salt. After 5 min on ice, the reaction mixture was terminated by adding 400 μL of acetonitrile containing an internal standard. Supernatants were transferred to labeled strip tubes with caps, which were vortexed for 3 min, and then sonicated for an additional 3 min. The samples were centrifuged for 10 min at 4000 rpm and the supernatants were used for metabolite identification. […]

In series [8] the test system is cynomolgus monkey hepatocytes. The series is described as follows: Hepatocyte metabolism of Compound 22 sodium salt, monkey. The conditions noted are these: 100 μM, up to 240 min. Format: in vitro ADME. As to the method:
as §1

Another series concerns human hepatocytes. As to the kind of experiment: Hepatocyte metabolism of Compound 22 sodium salt, human. The conditions noted are these: 100 μM, up to 240 min. Format: in vitro ADME. As to the method: as §1
The test system of another series is beagle dog hepatocytes. As to the kind of experiment: Hepatocyte metabolism of Compound 22 sodium salt, dog. The conditions noted are these: 100 μM, up to 240 min. It is filed as in vitro ADME. Here is the method:
as §1

A short description of series [9]: In vivo metabolism of Compound 22 sodium salt in bile-duct cannulated rats. Further details: species or system Sprague-Dawley rat. Here is the method:
Three bile-duct cannulated male Sprague-Dawley rats were dosed intravenously (IV) at 2.00 mg/kg. In addition to plasma samples, bile and urine were collected from 0 to 48 hours post-dose.

[10] abbreviates: Sprague-Dawley, rat, plasma analyte after 1.25 mg/kg oral dose of Compound 99, male rats.
Where [11] appears, read: plasma analyte after 1.25 mg/kg oral dose of Compound 99, male rats.

`O=C([O-])COC[C@H]1CC[C@H](COC(=O)N(c2ccccc2)c2ccc(Cl)cc2)CC1.[Na+]` [Sodium Salt of Compound 22, sodium 2-(((1r,4r)-4-(((4-chlorophenyl)(phenyl)carbamoyloxy)methyl)cyclohexyl)methoxy)acetate]: in series [1], the DVS absorption result is given as “less than 0.25%”. The “Solubility” value in series [2] (Corn Oil) was less than 100 µg/mL; in [2] (Cremophor RH 40), 7820 µg/mL; in series [2] (Gelucire 44/14), 1610 µg/mL; in series [2] (Gelucire 50/13) it was less than 10000 µg/mL; in [2] (Imwitor 742) it was 16200 µg/mL; in series [2] (Labrasol), 12980 µg/mL. The “Solubility” value in series [2] (Lauroglycol 90) was 260 µg/mL; in [2] (PEG400), 4850 µg/mL; in series [2] (PEG6000), less than 10000 µg/mL; in [2] (Safflower oil), less than 100 µg/mL; in series [2] (TPGS 1000) it was 2550 µg/mL.

On to `O=C(O)COC[C@H]1CC[C@H](COC(=O)N(c2ccccc2)c2ccc(Cl)cc2)CC1` [Compound 22, 2-(((1r,4r)-4-(((4-chlorophenyl)(phenyl)carbamoyloxy)methyl)cyclohexyl)methoxy)acetic acid], for which the time of peak concentration (Tmax) in series [3] worked out at 1.5 h. In addition, in [4] (setting [10]), the AUC(0-t) amounted to 935 ng·h/mL, the Cmax stood at 214 ng/mL and the half-life is 3.51 h. Moreover, the “time of Cmax” value in series [4] (setting [11]) amounted to 2.67 h. Besides, the stability in solution entry in [5] (Cremophor RH 40) is reported as “no observable degradation or API assay loss”. The stability in solution result in [5] (Imwitor 742) was “no observable degradation or API assay loss”. Further, in [5] (TPGS 1000), the stability in solution entry is recorded as “no observable degradation or API assay loss”. In addition, the “hypertrophic response, RV/(LV+S)” value in [6] is on record as “inhibited the hypertrophic response”.

For the compound `O=C(COC[C@H]1CC[C@H](COC(=O)N(c2ccccc2)c2ccc(Cl)cc2)CC1)NCCS(=O)(=O)O` [Compound 99, 2-(2-(((1r,4r)-4-(((4-chlorophenyl)(phenyl)carbamoyloxy)methyl)cyclohexyl)methoxy)acetamido) ethanesulfonic acid], the “metabolite of Compound 22 sodium salt in rat hepatocytes” value in [7] was “detected”. Further, the “metabolite of Compound 22 sodium salt in monkey hepatocytes” value in series [8] was “detected”. In series [4] (1.25 mg/kg oral dose in rats), the conversion to parent entry is “converted to Compound 22” and the exposure entry is given as “minimal exposure”. Moreover, in [4] (setting [10]), the AUC(0-t) was 11.9 ng·h/mL, the Cmax at 3.33 h stood at 1.93 ng/mL and the half-life was 3.24 h. In series [4] (male, Sprague-Dawley, rat, plasma, 10 mg/kg, after oral dose of the taurine conjugate of Compound 22), the Tmax turned out to be 3 h. Besides, in [4] (setting [11]), the “time of Cmax” value was 3.33 h. Besides, the “metabolite of Compound 22 sodium salt in human hepatocytes” value in the series with human hepatocytes is recorded as “detected”. Besides, in the series with beagle dog hepatocytes, the “metabolite of Compound 22 sodium salt in dog hepatocytes” value is on record as “detected”. Also, the metabolite in bile entry in [9] (2.00 mg/kg IV of Compound 22 sodium salt, bile 0 to 48 hours) was “observed in bile”. Also, the metabolite in urine entry in [9] (2.00 mg/kg IV of Compound 22 sodium salt, urine 0 to 48 hours) is given as “not observed in urine”. The “metabolite of Compound 22 sodium salt in rats” value in series [9] (2.00 mg/kg IV, male rats) was “major metabolite”.
